Assays:
Format in all cases: in vivo
[1] = system: corn (Zea mays); assay: Test A pre-/postemergence plant response; details: for Corn plant response rating: visual injury, 0 to 100 scale (0 no effect, 100 complete control), approx. ten days
In short: (§1)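 Pre: directed soil spray on seeded loam/sand blend. Post: same formulation (non-phytotoxic solvent + surfactant) on 2–10 cm plants, 1–2 leaf stage. Greenhouse ~10 d; visual injury score 0–100 vs untreated.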

[2] = system: velvetleaf (Abutilon theophrasti); assay: Test A pre-/postemergence plant response; details: for Velvetleaf plant response rating: visual injury, 0 to 100 scale (0 no effect, 100 complete control), approx. ten days
In short: as §1

[3] = system: giant foxtail (Setaria faberii); assay: Test A pre-/postemergence plant response; details: for Foxtail, Giant plant response rating: visual injury, 0 to 100 scale (0 no effect, 100 complete control), approx. ten days
In short: as §1

[4] = system: wheat (Triticum aestivum); assay: Test A pre-/postemergence plant response; details: for Wheat plant response rating: visual injury, 0 to 100 scale (0 no effect, 100 complete control), approx. ten days
In short: as §1

[5] = system: barnyardgrass (Echinochloa crus-galli); assay: Test A pre-/postemergence plant response; details: for Barnyardgrass plant response rating: visual injury, 0 to 100 scale (0 no effect, 100 complete control), approx. ten days
In short: as §1

[6] = system: morningglory (Ipomoea spp.); assay: Test A pre-/postemergence plant response; details: for Morningglory plant response rating: visual injury, 0 to 100 scale (0 no effect, 100 complete control), approx. ten days
In short: as §1

[7] = system: pigweed (Amaranthus retroflexus); assay: Test A pre-/postemergence plant response; details: for Pigweed plant response rating: visual injury, 0 to 100 scale (0 no effect, 100 complete control), approx. ten days
In short: as §1

[8] = system: large crabgrass (Digitaria sanguinalis); assay: Test A pre-/postemergence plant response; details: for Crabgrass, Large plant response rating: visual injury, 0 to 100 scale (0 no effect, 100 complete control), approx. ten days
In short: as §1

[9] = system: winter barley (Hordeum vulgare); assay: Test B postemergence plant response; details: for Barley plant response rating (0 to 100 scale): 62 g ai/ha, postemergence, 0 is no effect, 100 is complete control; for Plant response rating, Barley: Postemergence
In short: (§2)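 Visual ratings from 0 (no effect) to 100 (complete control), made against controls 13–15 days after treatment, kept in a greenhouse. Compounds were applied postemergence to potted plants at the 1- to 4-leaf stage (2–18 cm).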

[10] = system: chickweed (Stellaria media); assay: Test B postemergence plant response; details: Postemergence
In short: as §2

[11] = system: canarygrass (Phalaris minor); assay: Test B postemergence plant response; details: Postemergence
In short: as §2

[12] = system: windgrass (Apera spica-venti); assay: Test B postemergence plant response; details: Postemergence
In short: as §2

[13] = Postemergence, 125 g ai/ha, 0 to 100 scale where 0 is no effect and 100 is complete control
[14] = Preemergence, 125 g ai/ha, 0 to 100 scale, 0 = no effect, 100 = complete control
[15] = Preemergence, 500 g ai/ha, 0 to 100 scale, 0 = no effect, 100 = complete control
[16] = 31 g ai/ha, 0 to 100 scale (0 no effect, 100 complete control)
[17] = 125 g ai/ha, scale 0 to 100 (0 no effect, 100 complete control)
[18] = 250 g ai/ha, scale 0 to 100 (0 no effect, 100 complete control), 13 to 15 days

O=C1CCCC(O)=C1C(=O)c1cnc(-c2cccs2)n(C2CCCCC2)c1=O [Compound 189]
Plant response rating, Corn [1, 13]: 10 | Corn plant response rating ([1]; Postemergence, 500 g ai/ha): 40 | Plant response rating, Corn [1, 14]: 0 | Plant response rating, Corn [1, 15]: 0 | Plant response rating, Velvetleaf [2, 13]: 100 | Velvetleaf plant response rating ([2]; Postemergence, 500 g ai/ha): 100 | Plant response rating, Velvetleaf [2, 14]: 70 | Plant response rating, Velvetleaf [2, 15]: 100 | Plant response rating, Foxtail, Giant [3, 13]: 80 | Foxtail, Giant plant response rating ([3]; Postemergence, 500 g ai/ha): 90 | Plant response rating, Foxtail, Giant [3, 14]: 30 | Plant response rating, Foxtail, Giant [3, 15]: 60 | Plant response rating, Wheat [4, 13]: 0 | Wheat plant response rating ([4]; Postemergence, 500 g ai/ha): 0 | Plant response rating, Wheat [4, 14]: 0 | Plant response rating, Wheat [4, 15]: 0 | Plant response rating, Barnyardgrass [5, 13]: 90 | Barnyardgrass plant response rating ([5]; Postemergence, 500 g ai/ha): 90 | Plant response rating, Barnyardgrass [5, 14]: 20 | Plant response rating, Barnyardgrass [5, 15]: 90 | Plant response rating, Morningglory [6, 13]: 100 | Morningglory plant response rating ([6]; Postemergence, 500 g ai/ha): 100 | Plant response rating, Morningglory [6, 15]: 80 | Plant response rating, Pigweed [7, 13]: 100 | Pigweed plant response rating ([7]; Postemergence, 500 g ai/ha): 100 | Plant response rating, Pigweed [7, 14]: 70 | Plant response rating, Pigweed [7, 15]: 100 | Plant response rating, Crabgrass, Large [8, 13]: 90 | Crabgrass, Large plant response rating ([8]; Postemergence, 500 g ai/ha): 90 | Plant response rating, Crabgrass, Large [8, 14]: 30 | Plant response rating, Crabgrass, Large [8, 15]: 80 | Barley plant response rating (0 to 100 scale) ([9]; 13 to 15 days): 5 | Plant response rating, Barley [9, 16]: 0 | Plant response rating, Barley [9, 17]: 15 | Plant response rating, Barley [9, 18]: 40 | Plant response rating, Chickweed [10, 16]: 98 | Plant response rating, Chickweed [10, 17]: 100 | Plant response rating, Chickweed [10, 18]: 100 | Plant response rating, Canarygrass [11, 16]: 0 | Plant response rating, Canarygrass [11, 17]: 5 | Plant response rating, Canarygrass [11, 18]: 10 | Plant response rating, Windgrass [12, 16]: 25 | Plant response rating, Windgrass [12, 17]: 60 | Plant response rating, Windgrass [12, 18]: 80

CCCn1c(-c2cccc(Cl)c2)ncc(C(=O)C2=C(O)CCCC2=O)c1=O [Compound 190]
Plant response rating, Corn [1, 13]: 0 | Corn plant response rating ([1]; Postemergence, 500 g ai/ha): 0 | Plant response rating, Corn [1, 14]: 0 | Plant response rating, Corn [1, 15]: 0 | Plant response rating, Velvetleaf [2, 13]: 100 | Velvetleaf plant response rating ([2]; Postemergence, 500 g ai/ha): 100 | Plant response rating, Velvetleaf [2, 14]: 70 | Plant response rating, Velvetleaf [2, 15]: 100 | Plant response rating, Foxtail, Giant [3, 13]: 80 | Foxtail, Giant plant response rating ([3]; Postemergence, 500 g ai/ha): 90 | Plant response rating, Foxtail, Giant [3, 14]: 60 | Plant response rating, Foxtail, Giant [3, 15]: 90 | Plant response rating, Wheat [4, 13]: 0 | Wheat plant response rating ([4]; Postemergence, 500 g ai/ha): 0 | Plant response rating, Wheat [4, 14]: 0 | Plant response rating, Wheat [4, 15]: 0 | Plant response rating, Barnyardgrass [5, 13]: 90 | Barnyardgrass plant response rating ([5]; Postemergence, 500 g ai/ha): 100 | Plant response rating, Barnyardgrass [5, 14]: 10 | Plant response rating, Barnyardgrass [5, 15]: 100 | Plant response rating, Morningglory [6, 13]: 100 | Morningglory plant response rating ([6]; Postemergence, 500 g ai/ha): 100 | Plant response rating, Morningglory [6, 15]: 70 | Plant response rating, Pigweed [7, 13]: 100 | Pigweed plant response rating ([7]; Postemergence, 500 g ai/ha): 100 | Plant response rating, Pigweed [7, 14]: 70 | Plant response rating, Pigweed [7, 15]: 100 | Plant response rating, Crabgrass, Large [8, 13]: 90 | Crabgrass, Large plant response rating ([8]; Postemergence, 500 g ai/ha): 90 | Plant response rating, Crabgrass, Large [8, 14]: 60 | Plant response rating, Crabgrass, Large [8, 15]: 90 | Barley plant response rating (0 to 100 scale) ([9]; 13 to 15 days): 5 | Plant response rating, Barley [9, 16]: 0 | Plant response rating, Barley [9, 17]: 40 | Plant response rating, Barley [9, 18]: 70 | Plant response rating, Chickweed [10, 17]: 100 | Plant response rating, Chickweed [10, 18]: 100 | Plant response rating, Canarygrass [11, 16]: 0 | Plant response rating, Canarygrass [11, 17]: 25 | Plant response rating, Canarygrass [11, 18]: 55 | Plant response rating, Windgrass [12, 16]: 15 | Plant response rating, Windgrass [12, 17]: 65 | Plant response rating, Windgrass [12, 18]: 65
